Measurements as given in patent US20240150321A1, “PYRAZOLYLSULFONAMIDE COMPOUNDS AND THEIR USE IN THERAPY” (HOTSPOT THERAPEUTICS, INC., priority 2022, published 2024).
pIC50: −log10 of the molar value. Like-named read-outs stand apart in the source and are kept apart here.

Experiments:
[1] = tested on: NF-kB reporter in Jurkat cells; assay: NF-kB reporter assay in Jurkat cells stimulated with aCD3/aCD28/PMA; type: cell-based; settings: read-out: NF-kB Reporter Assay IC50
Summary of the method: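 Jurkat cells (25,000/well, serum-free RPMI) were pre-incubated 1 h at 37° C with serially diluted compound, then stimulated 4 h with aCD3/aCD28/PMA at final […]. NF-kB reporter activity was read by One-Glo luminescence; IC50 values reported.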

Avi-tagged FL MALT-1 = Avi-tagged FL MALT-1 (Homo sapiens (Human), UniProt Q9UDY8); assay: MALT-1 Fluorogenic Peptide Cleavage Assay (MALT1 inhibition assay); type: biochemical; settings: Ac-LRSR-AMC peptide substrate, 30 min pre-incubation, 90 min reaction at room temperature
Summary of the method: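 Full-length Avi-tagged human MALT-1 (40 nM working stock) pre-incubated 30 min at RT with compound in 25 mM HEPES pH 6.89, 660 mM sodium citrate, 1 mM TCEP, […], 0.05% CHAPS, 2% DMSO. Ac-LRSR-AMC added at Km (50 μM working stock) or 10×Km (280 μM working stock); 90 min at RT, AMC fluorescence (ex 342/em 441 nm), IC50 from % inhibition curves.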

[2] = Homo sapiens, Jurkat cells, 1 hr compound pre-incubation, aCD3/aCD28/PMA stimulation 4 hr, One-Glo readout

Chain of Avi-tagged FL MALT-1 (Q9UDY8 whole entry): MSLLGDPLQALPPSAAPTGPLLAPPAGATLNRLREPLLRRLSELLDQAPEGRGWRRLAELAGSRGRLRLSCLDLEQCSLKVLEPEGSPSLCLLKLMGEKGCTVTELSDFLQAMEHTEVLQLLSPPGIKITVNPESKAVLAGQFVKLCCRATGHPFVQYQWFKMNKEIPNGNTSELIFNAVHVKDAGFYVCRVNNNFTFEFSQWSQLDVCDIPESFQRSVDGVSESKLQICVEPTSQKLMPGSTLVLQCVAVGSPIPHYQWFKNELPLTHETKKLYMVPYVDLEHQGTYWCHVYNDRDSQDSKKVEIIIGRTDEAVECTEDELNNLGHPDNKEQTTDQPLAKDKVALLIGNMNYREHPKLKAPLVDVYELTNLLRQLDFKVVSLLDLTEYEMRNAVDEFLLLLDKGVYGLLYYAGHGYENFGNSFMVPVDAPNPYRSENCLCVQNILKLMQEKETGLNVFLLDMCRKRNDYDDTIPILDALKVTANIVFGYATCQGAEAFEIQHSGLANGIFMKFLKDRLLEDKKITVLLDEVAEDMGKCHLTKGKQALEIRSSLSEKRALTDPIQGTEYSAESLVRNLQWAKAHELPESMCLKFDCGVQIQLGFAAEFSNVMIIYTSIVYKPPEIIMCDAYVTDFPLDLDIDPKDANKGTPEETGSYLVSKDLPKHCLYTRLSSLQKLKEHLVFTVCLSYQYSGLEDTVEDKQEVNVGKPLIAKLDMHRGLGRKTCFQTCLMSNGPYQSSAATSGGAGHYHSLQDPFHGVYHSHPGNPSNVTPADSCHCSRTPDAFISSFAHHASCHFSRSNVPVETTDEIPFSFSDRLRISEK

Compound	pIC50 [1, 2]	pIC50 (Avi-tagged FL MALT-1)	pIC50 ([1]; Jurkat cells, 1 hr compound pre-incubation, aCD3/aCD28/PMA stimulation 4 hr, One-Glo readout)	pIC50 ([1]; Homo sapiens, Jurkat)
COc1ccc2cnn(C)c2c1NS(=O)(=O)c1cnn(-c2cc(N3CC(C)(C#N)C3)ccn2)c1 [Compound I-461]	6.00 to 6.40	< 5.60	–	–
COc1ccc2cnn(C)c2c1NS(=O)(=O)c1cnn(-c2cc([C@H](C)N3CCCCC3)ccn2)c1 [Compound I-462, (S)—N-(6-Methoxy-1-Methyl-1H-Indazol-7-yl)-1-(4-(1-(Piperidin-1-yl)Ethyl)Pyridin-2-yl)-1H-Pyrazole-4-Sulfonamide]	> 6.40	< 5.60	–	–
COc1ccc2cnn(C)c2c1NS(=O)(=O)c1cnn(-c2cc([C@@H](C)N3CCCCC3)ccn2)c1 [Compound I-463]	6.00 to 6.40	< 5.60	–	–
Cn1ncc2cccc(NS(=O)(=O)c3cnn(-c4cnn5c4COCC5)c3)c21 [Compound I-464, N-(1-methylindazol-7-yl)-1-{4H,6H,7H-pyrazolo[3,2-c][1,4]oxazin-3-yl}pyrazole-4-sulfonamide]	6.00 to 6.40	< 5.60	–	–
Cn1ncc2cccc(NS(=O)(=O)c3cnn(-c4cnn5c4OCCC5)c3)c21 [Compound I-465, N-(1-methylindazol-7-yl)-1-{5H,6H,7H-pyrazolo[3,2-b][1,3]oxazin-3-yl}pyrazole-4-sulfonamide]	5.60 to 6.00	< 5.60	–	–
CN1CCn2ncc(-n3cc(S(=O)(=O)Nc4cccc5cnn(C)c45)cn3)c2C1 [Compound I-466, 1-{5-methyl-4H,6H,7H-pyrazolo[1,5-a]pyrazin-3-yl}-N-(1-methylindazol-7-yl)pyrazole-4-sulfonamide]	< 5.60	< 5.60	–	–
COc1ccc2cnn(C)c2c1NS(=O)(=O)c1cnn(-c2cnn3c2OCCC3)c1 [Compound I-467, N-(6-methoxy-1-methylindazol-7-yl)-1-{5H,6H,7H-pyrazolo[3,2-b] [1,3]oxazin-3-yl} pyrazole-4-sulfonamide]	< 5.60	< 5.60	–	–
COc1ccc2cnn(C)c2c1NS(=O)(=O)c1cnn(-c2cnn3c2CN(C)CC3)c1 [Compound I-468, N-(6-methoxy-1-methylindazol-7-yl)-1-{5-methyl-4H,6H,7H-pyrazolo[1,5-a]pyrazin-3-yl}pyrazole-4-sulfonamide]	< 5.60	< 5.60	–	–
Cn1ncc2cccc(NS(=O)(=O)c3cnn(-c4cc(C5(C#N)CC5)ccn4)c3)c21 [Compound I-469, 1-(4-(1-cyanocyclopropyl)pyridin-2-yl)-N-(1-methyl-1H-indazol-7-yl)-1H-pyrazole-4-sulfonamide]	–	< 5.60	–	> 6.40
COc1ccc2cnn(C)c2c1NS(=O)(=O)c1cnn(-c2cc(C3(C#N)CC3)ccn2)c1 [Compound I-470, 1-[4-(1-cyanocyclopropyl)pyridin-2-yl]-N-(6-methoxy-1-methylindazol-7-yl)pyrazole-4-sulfonamide]	–	6.00 to 6.40	–	> 6.40
Cn1ncc2cccc(NS(=O)(=O)c3cnn(-c4cc(N5CC(C(N)=O)C5)ccn4)c3)c21 [Compound I-471, 1-(2-(4-(N-(1-methyl-1H-indazol-7-yl)sulfamoyl)-1H-pyrazol-1-yl)pyridin-4-yl)azetidine-3-carboxamide]	< 5.60	< 5.60	–	–
COc1ccc2cnn(C)c2c1NS(=O)(=O)c1cnn(-c2cc(N3CC(C)(C(N)=O)C3)ccn2)c1 [Compound I-472]	5.60 to 6.00	< 5.60	–	–
Cn1ncc2cccc(NS(=O)(=O)c3cnn(-c4cnc5n4CCOC5)c3)c21 [Compound I-473, 1-(5,6-dihydro-8H-imidazo[2,1-c][1,4]oxazin-3-yl)-N-(1-methyl-1H-indazol-7-yl)-1H-pyrazole-4-sulfonamide]	< 5.60	< 5.60	–	–
COc1ccc2cnn(C)c2c1NS(=O)(=O)c1cnn(-c2cnc3n2CCOC3)c1 [Compound I-475, 1-(5,6-dihydro-8H-imidazo[2,1-c][1,4]oxazin-3-yl)-N-(6-methoxy-1-methyl-1H-indazol-7-yl)-1H-pyrazole-4-sulfonamide]	< 5.60	< 5.60	–	–
Cn1ncc2cccc(NS(=O)(=O)c3cnn(-c4cc(C5(O)CC(C)(C)C5)ccn4)c3)c21 [Compound I-477, 1-(4-(1-hydroxy-3,3-dimethylcyclobutyl)pyridin-2-yl)-N-(1-methyl-1H-indazol-7-yl)-1H-pyrazole-4-sulfonamide]	> 6.40	< 5.60	–	–
COC1(c2ccnc(-n3cc(S(=O)(=O)Nc4cccc5cnn(C)c45)cn3)c2)CC(C)(C)C1 [Compound I-478, 1-(4-(1-methoxy-3,3-dimethylcyclobutyl)pyridin-2-yl)-N-(1-methyl-1H-indazol-7-yl)-1H-pyrazole-4-sulfonamide]	> 6.40	< 5.60	–	–
COc1ccc2cnn(C)c2c1NS(=O)(=O)c1cnn(-c2cc(C3(O)CC(C)(C)C3)ccn2)c1 [Compound I-479]	> 6.40	< 5.60	–	–
COc1ccc2cnn(C)c2c1NS(=O)(=O)c1cnn(-c2cc(C3(OC)CC(C)(C)C3)ccn2)c1 [Compound I-480]	> 6.40	< 5.60	–	–
COCC(C)(C)c1ccnc(-n2cc(S(=O)(=O)Nc3cccc4cnn(C)c34)cn2)c1 [Compound I-481, 1-(4-(1-methoxy-2-methylpropan-2-yl)pyridin-2-yl)-N-(1-methyl-1H-indazol-7-yl)-1H-pyrazole-4-sulfonamide]	> 6.40	< 5.60	–	–
Cn1ncc2cccc(NS(=O)(=O)c3cnn(-c4cc(C5(C#N)COC5)ccn4)c3)c21 [Compound I-483]	> 6.40	< 5.60	–	–
COC1(c2ccnc(-n3cc(S(=O)(=O)Nc4cccc5cnn(C)c45)cn3)c2)CC2(CC2)C1 [Compound I-484, 1-(4-(5-methoxyspiro[2.3]hexan-5-yl)pyridin-2-yl)-N-(1-methyl-1H-indazol-7-yl)-1H-pyrazole-4-sulfonamide]	> 6.40	< 5.60	–	–

Now from value to compound, other results behind:

pIC50 [1, 2]	pIC50 (Avi-tagged FL MALT-1)	pIC50 ([1]; Jurkat cells, 1 hr compound pre-incubation, aCD3/aCD28/PMA stimulation 4 hr, One-Glo readout)	Compound	pIC50 ([1]; Homo sapiens, Jurkat)
6.00 to 6.40	< 5.60	–	COc1ccc2cnn(C)c2c1NS(=O)(=O)c1cnn(-c2cc(N3CC(C)(OC)C3)ccn2)c1 [Compound I-453]	–
6.00 to 6.40	< 5.60	–	COc1ccc2cnn(C)c2c1NS(=O)(=O)c1cnn(-c2cc(N3CC(C#N)C3)ccn2)c1 [Compound I-454]	–
5.60 to 6.00	< 5.60	–	COc1ccc2cnn(C)c2c1NS(=O)(=O)c1cnn(-c2cnn3c2COCCC3)c1 [Compound I-455, N-(6-methoxy-1-methylindazol-7-yl)-1-{4H,6H,7H,8H-pyrazolo[3,2-c][1,4]oxazepin-3-yl}pyrazole-4-sulfonamide]	–
> 6.40	< 5.60	–	Cn1ncc2cccc(NS(=O)(=O)c3cnn(-c4cc(C5(C#N)CCC5)ccn4)c3)c21 [Compound I-456]	–
> 6.40	6.00 to 6.40	–	COc1ccc2cnn(C)c2c1NS(=O)(=O)c1cnn(-c2cc(C3(C#N)CCC3)ccn2)c1 [Compound I-457, 1-(4-(1-Cyanocyclobutyl)Pyridin-2-yl)-N-(6-Methoxy-1-Methyl-1H-Indazol-7-yl)-1H-Pyrazole-4-Sulfonamide]	–
< 5.60	< 5.60	–	Cn1ncc2cccc(NS(=O)(=O)c3cnn(-c4cc(N5CC(C)(C(N)=O)C5)ccn4)c3)c21 [Compound I-458]	–
< 5.60	< 5.60	–	COc1ccc2cnn(C)c2c1NS(=O)(=O)c1cnn(-c2cc(N3CC(C(N)=O)C3)ccn2)c1 [Compound I-459]	–
> 6.40	< 5.60	–	Cn1ncc2cccc(NS(=O)(=O)c3cnn(-c4cc(N5CC(C#N)C5)ccn4)c3)c21 [Compound I-460]	–
6.00 to 6.40	5.60 to 6.00	–	COc1ccc2cnn(C)c2c1NS(=O)(=O)c1cnn(-c2cnn3c2COCC3)c1 [Compound I-474, N-(6-methoxy-1-methylindazol-7-yl)-1-{4H,6H,7H-pyrazolo[3,2-c][1,4]oxazin-3-yl}pyrazole-4-sulfonamide]	–
> 6.40	≥ 6.40	–	[2H]C([2H])([2H])Oc1ccc2cnn(C([2H])([2H])[2H])c2c1NS(=O)(=O)c1cnn(-c2cc(C(F)(F)F)ccn2)c1 [Compound I-476, N-(6-(methoxy-d3)-1-(methyl-d3)-1H-indazol-7-yl)-1-(4-(trifluoromethyl)pyridin-2-yl)-1H-pyrazole-4-sulfonamide]	–
> 6.40	6.00 to 6.40	–	COCC(C)(C)c1ccnc(-n2cc(S(=O)(=O)Nc3c(OC)ccc4cnn(C)c34)cn2)c1 [Compound I-482, N-(6-methoxy-1-methyl-1H-indazol-7-yl)-1-(4-(1-methoxy-2-methylpropan-2-yl)pyridin-2-yl)-1H-pyrazole-4-sulfonamide]	–
> 6.40	6.00 to 6.40	–	COc1ccc2cnn(C)c2c1NS(=O)(=O)c1cnn(-c2cc(C3(OC)CC4(CC4)C3)ccn2)c1 [Compound I-485, N-(6-methoxy-1-methylindazol-7-yl)-1-(4-{5-methoxyspiro [2.3]hexan-5-yl}pyridin-2-yl) pyrazole-4-sulfonamide]	–
–	≥ 6.40	> 6.40	N-(6-Methoxy-1-Methyl-1H-Indazol-7-yl)-1-(4-(Trifluoromethyl)Pyridin-2-yl)-1H-Pyrazole-4-Sulfonamide [Compound I-5]	–
